# Laboratory results taken from US20040006070A1, “Intraspinal continuous infusion of midazolam hydrochloride for the treatment of pain” (priority 2002, published 2004).
# Where “and” joins values, the source holds several entries; their conditions need not be identical. Equal values may be shown once. Entries after “also recorded” stand apart in the source; their conditions may differ. Where a name gives a salt, the structure may show the parent alone. Read-outs that look alike come from different tables or passages of the source.
# Experiments:
# [1] = CSF fluid analysis and routine cultures; assay type: in vivo, sheep; conditions: for CSF RBC Count Post Mortum / CSF WBC Count Post Mortum / CSF Glucose Post Mortum / CSF Total Protein Post Mortum: day 43
# Method: On day 43 after venous blood samples were taken, animals were euthanized (Beuthanasia 1 ml/4.5 kg IV bolus injection). CSF samples were obtained for analysis (1-2 ml drawn from L-7/S-1 after a laminectomy was performed to expose the dura) of glucose, total protein, and cell differential.
# [2] = 1-5 mg/day, prior art; cited from earlier work
# [3] = system: neuropathic pain model in the sheep; experiment: Neuropathic pain model in sheep, behavior monitoring (Observer 3.0) with visual analog pain score; assay type: in vivo; conditions: for average pain score: sheep #980 Dudley
# From the text: The neuropathic pain model in the sheep is created by placing four tight ligatures around the median, radial, or ulnar nerve (or a combination thereof) with 0-chromic gut suture. This method produces a chronic painful peripheral mononeuropathy which may be related to those conditions seen in humans with causalgia and reflex sympathetic dystrophy.
# To evaluate animal behavior, the Observer 3.0 software (Noldus Information Technology, The Netherlands) was used to aid docmentation of a daily record of multiple traits. […] The behavior was then interpreted into a visual analog pain score (VAS), where 0 represents no pain and 100 represents severe pain.
# Approximately three days prior to surgery each sheep will undergo a 15-minute baseline behavior evaluation. The observations made in this evaluation include, a computerized behavior software recording (the Observer) for 15minutes—gait monitoring—and recording of pain perception via visual analog scale-using the Observer. In some animals, recording of vital signs (blood pressure, heart rate, respirations per minute) will be performed using the Observer. Baseline values for pain perception are recorded via the mechanical stimulus device and/or behavior monitoring will also be performed at this time.
# The sheep will be observed daily postoperatively. […] Observations of neuropathic pain development include changes in ambulation, alertness, appetite, urination, defecation, herding activity, body temperature and pain behaviors. This daily behavior is recorded utilizing the observer (an observational software system).
# [4] = rat, single or multiple intrathecal bolus doses for 20 days; cited from earlier work
# [5] = Toxicity in neuropathic pain sheep: clinical signs, necropsy, histopathology; assay type: in vivo
# From the text: Animals will be observed daily for any signs of clinical toxicity such as limping and loss of appetite. At necropsy the spinal cord will be examined for any gross changes. Histopathologic evaluation will be performed on all animals after drug studies are complete. These examinations will detect any neurotoxicity that may be present due to the spinal infusion of midazolam.
# [6] = Gait monitoring, four-grade scale of behavioral and motor changes; assay type: in vivo, sheep; set-up: key: Grade 0: animal standing, sheep is able to rise and ambulate without any difficulty; Grade 1: Shuffling of either rear leg or slight limp; slight distortion of normal spinal axis; Grade 2: Loss of righting reflex in one of the rear legs, sheep able to stand without assistance, but with some difficulty; Grade 3: Inability to maintain standing posture; attempts to help animal stand are unsuccessful; conditions: day (1-43)
# From the text: Daily rectal temperatures were taken and any behavioral/motor changes were noted. Gait monitoring will be conducted as described below based on a four-grade scale for the evaluation of behavioral and motor changes. Grade 0: animal standing, sheep is able to rise and ambulate without any difficulty. Grade 1: Shuffling of either rear leg or slight limp; slight distortion of normal spinal axis. Grade 2: Loss of righting reflex in one of the rear legs, sheep able to stand without assistance, but with some difficulty. Grade 3: Inability to maintain standing posture; attempts to help animal stand are unsuccessful.
# [7] = rabbit, intrathecal bolus 0.1% midazolam or preservative-free midazolam in 0.3 ml, one or five days; cited from earlier work
# [8] = CSF, double blinded study, individual sheep, dose group not given, hydrochloride
# [9] = open label sheep Red #473, 3 mg/day
# [10] = open label sheep Sandy #518, 5 mg/day
# [11] = open label sheep Toad #498, 10 mg/day
# [12] = sheep Rowdy #819, 5 mg, daily values, hydrochloride, on May 29, 2001
# [13] = sheep Rowdy #819, 5 mg, daily values, hydrochloride, on May 30, 2001
compound,measurement,setting,value
"Cc1ncc2n1-c1ccc(Cl)cc1C(c1ccccc1F)=NC2 [Midazolam, midazolam hydrochloride]",Gross Exam Post Mortum,"[1]; CSF, double blinded study, individual sheep, dose group (5 or 15 mg/day or saline) not given, hydrochloride",cloudy; also recorded: Colorless; also recorded: clear; also recorded: Pale pink; also recorded: Cloudy**
same,Glucose Post Mortum,[1]; [8],35 mg/dL and 25 mg/dL and 31 mg/dL and 38 mg/dL and 24 mg/dL and 47 mg/dL and 34 mg/dL
same,RBC Count Post Mortum,[1]; [8],480 µL⁻¹ and 725 µL⁻¹ and 4250 µL⁻¹ and 63 µL⁻¹ and 2 µL⁻¹ and 4 µL⁻¹ and 1325 µL⁻¹
same,Total Protein Post Mortum,[1]; [8],73 mg/dL and 40 mg/dL and 47 mg/dL and 35 mg/dL and 59 mg/dL and 39 mg/dL and 42 mg/dL
same,WBC Count Post Mortum,[1]; [8],12 µL⁻¹ and 80 µL⁻¹ and 22 µL⁻¹ and 8 µL⁻¹ and 1 µL⁻¹ and 4 µL⁻¹ and 29 µL⁻¹
same,Routine Cultures Post Mortum,"[1]; CSF, individual sheep, cell wraps 'No' / 'Growth', dose group not given",No
same,CSF RBC Count Post Mortum,[1]; [9],772 µL⁻¹
same,CSF WBC Count Post Mortum,[1]; [9],4 µL⁻¹
same,CSF Glucose Post Mortum,[1]; [10],36 mg/dL
same,CSF RBC Count Post Mortum,[1]; [10],56 µL⁻¹
same,CSF Total Protein Post Mortum,[1]; [10],46.1 mg/dL
same,CSF WBC Count Post Mortum,[1]; [10],206 µL⁻¹
same,CSF Glucose Post Mortum,[1]; [11],40 mg/dL
same,CSF RBC Count Post Mortum,[1]; [11],2160 µL⁻¹
same,CSF Total Protein Post Mortum,[1]; [11],39.6 mg/dL
same,CSF WBC Count Post Mortum,[1]; [11],36 µL⁻¹
same,toxicities reported,[2],Sedation and somnolence
same,"VAS score (0 no pain, 100 severe pain)","[3]; average on most days, intrathecal 3 to 6 mg/day, saline pretreatment 60 to 95",approximately 30
same,"VAS score, average","[3]; first sheep (Rowdy), 5 mg/day",30%
same,analgesia at higher doses,"[3]; first sheep (Rowdy), after dose escalation to 15 mg/day",less analgesia
same,analgesic activity against neuropathic pain,[3]; intrathecal up to 5 mg/day,had analgesic activity against neuropathic pain
same,average pain score,[3]; 3 mg/day for 13 days,32%
same,average pain score,"[3]; 6 mg/day, remainder of the study",35%
same,average pain score,[3]; reinstituted 3 mg/day escalated to 5 mg/day over 7 days,65%
same,Other behavior: Observe operated leg,"[3]; sheep Rowdy #819, 5 mg",0.56%
same,Eating,[3]; [12],69.88%
same,Holding operated leg off the ground,[3]; [12],5.77%
same,Holding unoperated leg off the ground,[3]; [12],0.90%
same,Walking,[3]; [12],5.07%
same,Eating,[3]; [13],83.94%
same,Holding operated leg off the ground,[3]; [13],6.24%
same,Holding unoperated leg off the ground,[3]; [13],0.56%
same,Walking,[3]; [13],4.22%
same,Other behavior: Eating lying down,"[3]; sheep Rowdy #819, 10 mg",0.29%
same,Eating,"[3]; sheep Rowdy #819, 15 mg",3.29%
same,Holding operated leg off the ground,"[3]; sheep Rowdy #819, 15 mg",8.55%
same,Holding unoperated leg off the ground,"[3]; sheep Rowdy #819, 15 mg",0.81%
same,Other behavior: Bleating,"[3]; sheep Rowdy #819, 15 mg",0.86%
same,Other behavior: Pulling wool,"[3]; sheep Rowdy #819, 15 mg",1.11%
same,Other behavior: Standing ruminating,"[3]; sheep Rowdy #819, 15 mg",70.19%
same,Pain Score,"[3]; sheep Rowdy #819, 15 mg",40
same,Standing,"[3]; sheep Rowdy #819, 15 mg",13.79%
same,Walking,"[3]; sheep Rowdy #819, 15 mg",1.40%
same,neurotoxicity,[4],neurotoxicity
same,tolerability,[5]; intrathecal up to 5 mg/day,tolerated well
same,"necropsy, spinal cord lesions",[5]; sheep #980 Dudley,did not exhibit any spinal cord lesions
same,Gait Normal 0,"[6]; double blinded sheep Chicken Hawk #87, 5 mg/day intrathecal infusion",0
same,Gait Normal 0,"[6]; double blinded sheep Elmer Fudd #437, 5 mg/day intrathecal infusion",0
same,Gait Normal 0,"[6]; double blinded sheep Leghorn II #815, 15 mg/day intrathecal infusion",0
same,Gait Normal 0,"[6]; double blinded sheep Petunia #439, 15 mg/day intrathecal infusion",0
same,Gait Normal 0,"[6]; double blinded sheep Porky #402, 5 mg/day intrathecal infusion",0
same,Gait Normal 0,"[6]; double blinded sheep Roadrunner #84, 15 mg/day intrathecal infusion",0
same,Gait Normal 0,"[6]; open label sheep #457 Tazz, 15 mg/day intrathecal infusion",0
same,Gait Normal 0,"[6]; open label sheep #498 Toad, 10 mg/day intrathecal infusion",0
same,Gait Normal 0,"[6]; open label sheep #518 Sandy, 5 mg/day intrathecal infusion",0
same,Gait Normal 0,"[6]; open label sheep Dot #85, 15 mg/day intrathecal infusion",0
same,Gait Normal 0,"[6]; open label sheep Wacko #83, 15 mg/day intrathecal infusion",0
same,Gait Normal 0,"[6]; open label sheep Yacko #91, 15 mg/day intrathecal infusion",0
same,neurotoxicity,[7],neurotoxicity
